How the values were obtained:
150Q cells [1] = assay: EM48 immunofluorescence and Hoechst staining after LMB, 150Q cells; type: cell-based, rat; settings: LMB 10 nM
Description: (§1) Immunofluorescent labeling of cultured cells. Transfected cells grown in chamber slides were fixed in 4% paraformaldehyde in PBS for 15 min, permeabilized with 0.4% Triton X-100 in PBS for 30 min, blocked with 5% normal goat serum (NGS) in PBS for 1 hr, and incubated with primary antibodies in 2% NGS and PBS overnight at 4° C. After several washes, the cells were incubated with secondary antibodies conjugated with either FITC or rhodamine (Jackson ImmunoResearch, West Grove, Pa.). Hoechst dye (1 μg/ml) was used to label the nuclei. A Zeiss fluorescent microscope (Axioskop 2) and video system (Dage-MTI, Michigan City, Ind.) were used to capture images. The captured images were stored and processed using Adobe Photoshop software. Cell viability and apoptosis assays. […] PC12 cells were plated in 96-well plates at a density of 10,000 cells/well and maintained 16-24 hr in complete medium. […] Leptomycin B (LMB; 10 nM) [provided by Dr. Minoru Yoshida (Kudo et al. (1997) J. Biol. Chem. 272:29742-29751)] was added to the medium for 12-16 hr. After drug treatment, 20 μl of MTS reagent (2.1 mg/ml) was added to each well. The cells were then incubated for 30-45 min at 37° C. in a 5% CO2 incubator. The reaction was stopped by adding 25 μl of 10% SDS. The plates were read with a microplate reader (SPECTRAmax Plus; Molecular Devices, Palo Alto, Calif.) at 490 nm. […]

150Q cells [2] = assay: Cell viability (MTS) assay, 150Q cells; type: cell-based, rat
Description: Cell viability and apoptosis assays. […] PC12 cells were plated in 96-well plates at a density of 10,000 cells/well and maintained 16-24 hr in complete medium. […] Leptomycin B (LMB; 10 nM) [provided by Dr. Minoru Yoshida (Kudo et al. (1997) J. Biol. […] After drug treatment, 20 μl of MTS reagent (2.1 mg/ml) was added to each well. The cells were then incubated for 30-45 min at 37° C. in a 5% CO2 incubator. The reaction was stopped by adding 25 μl of 10% SDS. The plates were read with a microplate reader (SPECTRAmax Plus; Molecular Devices, Palo Alto, Calif.) at 490 nm. Each data point was obtained using a triplet-well assay.

20Q cells [3] = assay: EM48 immunofluorescence and Hoechst staining after LMB, 20Q cells; type: cell-based, rat; settings: LMB 10 nM
Description: as §1

parental PC12 cells [4] = assay: Trypan blue exclusion cell death assay, parental PC12 cells; type: cell-based, rat; settings: 100 nm staurosporine
Description: (§2) Cell death rate and neurite outgrowth assays. Cells were plated at a standard density (4×10^4/cm^2) in six-well plates with DMEM supplemented with 5% FBS and 10% horse serum. Cultured cells were harvested, centrifuged at 1000 rpm for 5 min, and resuspended in PBS containing 0.4% trypan blue. The cells were incubated in the trypan blue solution for 10 min and transferred to a hemocytometer, and the number of viable (phase bright) and nonviable (blue) cells was recorded. For each sample, cell counts in four corner fields of the hemocytometer were averaged.

parental PC12 cells [5] = assay: Neurite outgrowth assay, parental PC12 cells; type: cell-based, rat; settings: for neurite outgrowth promoted by growth factor: control/parental PC12 cells, IL-6 20 ng/ml, CNTF 20 ng/ml, EGF 10 ng/ml, bFGF 20 ng/ml
Description: To evaluate neurite outgrowth, we plated the cells at low density (2×10^4 Cells/cm^2) onto six-well plates. Cell cultures were treated with NGF (100 ng/ml) for 48 hr or with staurosporine (50-100 nM) and EGF (10 ng/ml) for 16 hr and were fixed with 4% paraformaldehyde in PBS for 15 min. After several washes with PBS, cells with neurites exceeding the cell diameter were counted using an inverted microscope (Olympus Optical CK2, Tokyo, Japan). At the same time, five to seven images (10×) were captured by a Pixera camera, and the percentage of cells with neurites was confirmed by analyzing these images. On average, 500-800 cells were counted for each group.

[6] = system: PC12 cells expressing the 150Q mutant HD exon-1 protein (150Q cells); assay: Neurite outgrowth assay, 150Q cells; type: cell-based, rat
Description: (§3) Huntingtin constructs, transfection, and selection of stably transfected cell lines. A partial huntingtin CDNA containing 20 (20Q) or 150 CAG repeats was isolated from a lambda phage DNA that contains exon-1 of the human HD gene [provided by Dr. Gillian Bates (Mangiarini et al. (1996) Cell 87:493-506)]. The N-terminal huntingtin fragments encoded by these cDNAs were expressed using the pCIS expression vector that carries a cytomegalovirus promoter (Li et al. (1998) Hum. Molec. Genet. 7:777-782). The pCDNA3 vector, which carries the G418 resistance gene (Invitrogen, San Diego, Calif.), was cotransfected with the pCIS-huntingtin constructs. Subconfluent PC12 cells in 80 mm dishes were transfected with 7 μg of plasmid DNA and 10 μg/ml lipofectAMINE (Life Technologies) per dish. The transfected cells were then selected in the presence of 500 μg/ml G418 in DM EM plus 5% fetal bovine serum and 10% horse serum. Selected G418-resistant cells were subcloned and maintained in the same conditioned medium until each cell line contained homogenous transfected cells. […]
(§4) To evaluate neurite outgrowth, we plated the cells at low density (2×10^4 Cells/cm^2) onto six-well plates. […] After several washes with PBS, cells with neurites exceeding the cell diameter were counted using an inverted microscope (Olympus Optical CK2, Tokyo, Japan). […] On average, 500-800 cells were counted for each group.

parental PC12 cells [7] = settings: PC12 cells (Yao et al. 1997); cited from earlier work
150Q cells [8] = assay: Trypan blue exclusion cell death assay, 150Q cells; type: cell-based, rat
Description: as §2

20Q cells [9] = assay: Cell viability (MTS) assay, 20Q cells; type: cell-based, rat; settings: 20Q cells vs parental PC12 cells, >250 nM staurosporine
Description: Cell viability was determined by a modified 3-(4,5-dimethylthiazol-2-yl)-2,5-diphenyltetrazohum bromide (MTS) assay (Cell Titer 96; Promega), which is based on the conversion of tetrazolium salt 3-(4,5-dimethylthiazol-2-yl)-5-(3-carboxymethoxyphenyl)-2-(4-sulfophenyl) 2-H-tetrazolium by mitochondrial dehydrogenase to a formazan product, as measured at an absorbance of 490 nm. PC12 cells were plated in 96-well plates at a density of 10,000 cells/well and maintained 16-24 hr in complete medium. Cells were then changed to medium containing 1% FBS in the absence or presence of staurosporine at different concentrations. Staurosporine was dissolved in 2 mM dimethylsulfoxide (DMSO) and diluted in the medium at various concentrations. […] After drug treatment, 20 μl of MTS reagent (2.1 mg/ml) was added to each well. The cells were then incubated for 30-45 min at 37° C. in a 5% CO2 incubator. The reaction was stopped by adding 25 μl of 10% SDS. The plates were read with a microplate reader (SPECTRAmax Plus; Molecular Devices, Palo Alto, Calif.) at 490 nm. Each data point was obtained using a triplet-well assay.

[10] = system: PC12 cells expressing the 20Q HD exon-1 protein (20Q cells); assay: Neurite outgrowth assay, 20Q cells; type: cell-based, rat; settings: IL-6 20 ng/ml
Description: as §3, §4

[11] = 150Q cells treated with EGF and staurosporine together

## CCC(=C/[C@H](C)C/C=C/C(C)=C/[C@@H](C)C(=O)[C@@H](C)[C@H](O)[C@@H](C)C/C(C)=C/C(=O)O)/C=C/[C@@H]1OC(=O)C=C[C@@H]1C [LMB, Leptomycin B]
150Q cells [1]
  DNA fragmentation after LMB: more 150Q cells showed DNA fragmentation
150Q cells [1]; vs without LMB
  intranuclear EM48 labeling after LMB: more 150Q cells had intense intranuclear EM48 labeling
150Q cells [2]; 150Q cells vs control cells, LMB 10 nM
  cell viability after exposure to LMB: more 150Q cells than control cells were dying
20Q cells [3]
  DNA fragmentation after LMB: very few LMB-treated 20Q cells had DNA fragmentation
  nuclear labeling after LMB: increased the nuclear labeling of some 20Q cells

## CN[C@@H]1C[C@H]2O[C@@](C)([C@@H]1OC)n1c3ccccc3c3c4c(c5c6ccccc6n2c5c31)C(=O)NC4 [staurosporine]
Parental PC12 cells [4]
  cell death with staurosporine: without displaying significant cell death
Parental PC12 cells [5]; parental PC12 cells, 100 nm staurosporine
  neurite outgrowth with staurosporine: grew neurites
[6]; 150Q cells, 100 nm staurosporine, living cells
  neurite outgrowth with staurosporine: some of the living 150Q cells displayed neurite outgrowth
Parental PC12 cells [7]
  time to initiation of neurite outgrowth: 4 to 6 h
150Q cells [2]; 150Q cells vs 20Q or parental PC12 cells, 10-125 nM staurosporine
  susceptibility to staurosporine (cell viability): more susceptible
150Q cells [8]; 150Q cells, 100 nm staurosporine
  cell death with staurosporine: killed a significant number of 150Q cells
20Q cells [9]
  cell killing by higher doses of staurosporine: killed more 20Q cells than parental PC12 cells

## EGF: epidermal growth factor (NSDSECPLSHDGYCLHDGVCMYIEALDKYACNCVVGYIGERCQYRDLKWWELR; Epidermal growth factor; UniProt P01133 971-1023, looked up)
Parental PC12 cells [5]
  neurite outgrowth promoted by growth factor: very weak effect
[6]; [11]
  effect of EGF on neurite outgrowth: significantly enhanced neurite outgrowth
150Q cells [2]; 150Q cells, EGF 10 ng/ml in the presence of 10-100 nM staurosporine
  effect of EGF on cell viability: significantly increased cell viability
150Q cells [8]; [11]
  effect of EGF on cell death: reduced cell death

## IL-6: interleukin-6
Parental PC12 cells [5]
  neurite outgrowth promoted by growth factor: promoted neurite outgrowth
[10]
  neurite outgrowth promoted by growth factor: promoted neurite outgrowth

— patent US6355481B1, “Hybridoma cell line and monoclonal antibody for huntingtin protein” (Emory University, priority 1999, dated 2002)
